In PMC3242765, “Inhibitors of Alphavirus Entry and Replication Identified with a Stable Chikungunya Replicon Cell Line and Virus-Based Assays” (PLoS ONE, 2011):

test system: SFV-Rluc; details: Supplementary Table 2, moderately active compounds (25 - 60% remaining), primary screen at 50 µM

SMILES | % left (remaining SFV replication) [%]
Cc1ccc(C(C)C)c(O)c1 [NC-101] | 42.0
COc1cc(C(=O)O)cc(OC)c1OC [NC-102] | 34.1
COc1cc(C=O)ccc1O [NC-106] | 47.9
CCCCNc1ccc(C(=O)OCCN(C)C)cc1.Cl [PC-032] | 45.2
NC(=O)N1c2ccccc2C=Cc2ccccc21 [PC-037] | 57.3
CNC1=Nc2ccc(Cl)cc2C(c2ccccc2)=[N+]([O-])C1 [PC-041] | 54.3

same assay, conditions: primary screening of chemical libraries; compounds tested at 50 µM

SMILES | SFV replication % left [%]
COc1cc(C(=O)O)cc(OC)c1O [NC-097] | 61.1
CC[C@@]1(O)C(=O)OCc2c1cc1n(c2=O)Cc2cc3ccccc3nc2-1 [NC-099] | 87.7
O=C1c2c(O)cc(O)cc2O[C@H](c2ccc(O)c(O)c2)[C@H]1O [NC-100] | 93.7
Cc1ccc(C(C)C)c(O)c1 [NC-101] | 42.0
COc1cc(C(=O)O)cc(OC)c1OC [NC-102] | 34.0
Cc1c(C)c2c(c(C)c1O)CCC(C)(C(=O)O)O2 (centres unmarked) [NC-103] | 76.9
O=c1ccc2ccc(O)cc2o1 [NC-104] | 93.1
COc1cc(C(=O)O)ccc1O [NC-105] | 53.4
COc1cc(C=O)ccc1O [NC-106] | 47.9
Cc1cc(C(C)(C)C)c(O)c(C(C)(C)C)c1 [NC-107] | 72.6
Cc1cc(=O)oc2cc(O)ccc12 [NC-108] | 90.9
COc1cc2oc(=O)ccc2cc1O [NC-109] | 120.6
COc1cc2ccc(=O)oc2c(O)c1O [NC-110] | 103.6
COc1cc2ccc(=O)oc2c(O)c1OC [NC-111] | 77.8
O=c1ccc2ccc(O)c(O)c2o1 [NC-112] | 90.6
COc1ccc2ccc(=O)oc2c1O [NC-113] | 105.6
COc1cc2ccc(=O)oc2cc1O [NC-114] | 81.9
O=c1ccc2ccc(O)cc2o1 [NC-115] | 78.4
Cc1ccc2oc(=O)ccc2c1 [NC-116] | 83.6
O=c1cc(O)c2ccccc2o1 [NC-117] | 100.2
CC(=O)CC(c1ccccc1)c1c(O)c2ccccc2oc1=O (centres unmarked) [NC-118] | 79.5
COc1ccc2oc(=O)cc(C)c2c1 [NC-119] | 66.6
COc1ccc2c(C)cc(=O)oc2c1 [NC-120] | 72.2
Cc1cc(=O)oc2cc(O)cc(O)c12 [NC-122] | 66.7
CN1CCCCC1CCN1c2ccccc2Sc2ccc([S+](C)[O-])cc21 (centres unmarked) [NC-123] | 131.1

SMILES | SFV replication % left [%]
COc1ccc2ccc(=O)oc2c1 [NC-124] | 53.2
O=C(O)c1cc2cc(Br)cc(Br)c2oc1=O [NC-125] | 67.4
O=c1ccc2cc(O)c(O)cc2o1 [NC-126] | 103.6
O.O.O.O=c1ccc2cc(O[C@@H]3O[C@H](CO)[C@@H](O)[C@H](O)[C@H]3O)c(O)cc2o1.O=c1ccc2cc(O[C@@H]3O[C@H](CO)[C@@H](O)[C@H](O)[C@H]3O)c(O)cc2o1 [NC-127] | 95.0
COc1cc(OC)c2ccc(=O)oc2c1 [NC-128] | 67.4
COc1c2occc2cc2ccc(=O)oc12 [NC-129] | 86.7
O=c1oc2c3c4c(cc2c2c1CCC2)CCCN4CCC3 [NC-130] | 82.1
O=c1cc(C(F)(F)F)c2cc3c4c(c2o1)CCCN4CCC3 [NC-131] | 52.6
CC(=O)Nc1ccc(O)cc1 [PC001-] | 63.5
CC(=O)Nc1ccccc1 [PC-002] | 57.3
CC(=O)Nc1nnc(S(N)(=O)=O)s1 [PC-003] | 71.3
O=C1NC2NC(=O)NC2N1 (centres unmarked) [PC-004] | 55.2
CC(=O)NS(=O)(=O)c1ccc(N)cc1 [PC-005] | 63.2
N[C@@H](Cc1ccc(O)c(O)c1)C(=O)O [PC-007] | 43.6
C=CCC1(CC=C)C(=O)NC(=O)NC1=O [PC-008] | 45.6
C=CC[C@]1(O)CC[C@H]2[C@@H]3CCC4=CCCC[C@@H]4[C@H]3CC[C@@]21C [PC-009] | 37.2
Nc1ccc(C(=O)O)cc1 [PC-010] | 56.5
Cc1c(N)c(=O)n(-c2ccccc2)n1C [PC-011] | 51.6
CCC(CN(C)C)(CN(C)C)OC(=O)c1ccccc1.Cl [PC-012] | 43.4
C[C@@]12CCC[C@H]1[C@@H]1CC[C@H]3CCCC[C@]3(C)[C@H]1CC2 [PC-013] | 53.0
Cl.c1ccc(CN(CC2=NCCN2)c2ccccc2)cc1 [PC-014] | 38.7
Cc1cc(=O)n(-c2ccccc2)n1C [PC-015] | 60.1
Br.COC(=O)C1=CCCN(C)C1 [PC-016] | 83.6
CC(C)NCC(O)COc1ccc(CC(N)=O)cc1 (centres unmarked) [PC-017] | 44.2
C[N+]1(C)[C@@H]2CC[C@H]1C[C@@H](OC(=O)C(CO)c1ccccc1)C2.O=[N+]([O-])[O-] (some centres unmarked) [PC-018] | 46.8

SMILES | SFV replication % left [%]
CCCCNCC(O)c1ccc(O)cc1 (centres unmarked) [PC-019] | 67.1
CCC1(CC)C(=O)NC(=O)NC1=O [PC-020] | 64.7
O=C1CC(=O)NC(=O)N1 [PC-021] | 48.8
CCOC(=O)c1ccc(N)cc1 [PC-023] | 43.4
CN(Cc1cc(Br)cc(Br)c1N)C1CCCCC1.Cl [PC-024] | 64.8
CCCCNC(=O)c1ccc(Cl)cc1O [PC-025] | 49.6
CC(C)(C)NCC(O)COc1ccccc1C#N (centres unmarked) [PC-026] | 40.7
CC(C)(C)NC[C@H](O)COc1cccc2c1CCCC2=O [PC-027] | 59.6
CS(=O)(=O)OCCCCOS(C)(=O)=O [PC-028] | 51.8
CCCCC1(CC)C(=O)NC(=O)NC1=O [PC-029] | 45.2
CCC(C)NCC(O)c1ccc2c(c1)CCCC2 (centres unmarked) [PC-030] | 73.1
CCCCOC(=O)c1ccc(N)cc1 [PC-031] | 76.6
CCCCNc1ccc(C(=O)OCCN(C)C)cc1.Cl [PC-032] | 45.4
CCCCNC(=O)NS(=O)(=O)c1ccc(N)cc1 [PC-033] | 83.9
CCCCNc1ccc(C(=O)OCCN(C)C)cc1.Cl [PC-034] | 63.8
CC(C)(CO)[C@@H](O)C(=O)NCCC(=O)[O-].CC(C)(CO)[C@@H](O)C(=O)NCCC(=O)[O-].[Ca+2] [PC-035] | 67.9
CC12CCC(CC1=O)C2(C)C (centres unmarked) [PC-036] | 83.9
NC(=O)N1c2ccccc2C=Cc2ccccc21 [PC-037] | 57.2
CC(C)(C)NCC(O)COc1cccc2c1CCC(=O)N2.Cl (centres unmarked) [PC-038] | 67.2
CCCCCCCCCCCCCCCC[N+](C)(C)C.[Br-] [PC-039] | 75.0
O=C(N[C@H](CO)[C@H](O)c1ccc([N+](=O)[O-])cc1)C(Cl)Cl [PC-040] | 73.8
CNC1=Nc2ccc(Cl)cc2C(c2ccccc2)=[N+]([O-])C1 [PC-041] | 54.3
CC(C)(O)C(Cl)(Cl)Cl [PC-042] | 84.2
CN1C(=O)CN=C(c2ccc(Cl)cc2)c2cc(Cl)ccc21 [PC-043] | 64.0
